Patent US3970648A, “2-[2-(5-Nitro-2-furyl)vinyl]-4-(anilino)quinazolines” (Diamond Shamrock Corporation, priority 1974, dated 1976)

Columns and labels:
Streptococcus agalactiae = experiment: Bactericide test, Streptococcus agalactiae (agar streak plate); format: cell-based
Source text: (§1) Test formulations were examined for bactericidal and/or bacteriostatic activity against the test organisms shown in Tables A and B. These organisms were chosen as being representative of commercially important pathogens affecting animal agriculture. The antibiotic chlortetracycline was chosen as a positive control, since it has a broad spectrum of activity against a large number of organisms, and its activity can be used for comparative purposes.
(§2) Basic test formulations of the product of Examples I, II, III, and of chlortetracycline were prepared by dissolving 16 mg (0.016 g) in 2.0 ml of stock emulsifier solution (0.25% Triton X-155 in acetone by volume) and making each solution up to 50 ml with deionized water. The concentration of the test compound in the basic formulation was 320 ppm. Lower concentrations of the test compound were obtained by diluting the basic formulation with a 4% solution of the stock emulsifier in deionized water so that each dilution in the series differed only in test compound content.
(§3) Nutrient-tryptic soy agar (NTA) consisting of 2.0% Difco Bactoagar 0.8% nutrient broth (Difco), and 0.5% tryptic soy broth (Difco) was prepared and sterilized by autoclaving. A 2 ml aliquot of each test formulation was added to 8 ml of molten NTA. This mixture was then plated in a sterile polystyrene petri dish (100 × 15 mm). After the agar was set, suspensions of each of the test organisms were simultaneously streaked onto the surface of the agar. The inoculated plates were incubated for 48 hr at 28°C. The inhibition of growth of each organism was rated by visual comparison with the organism developing on non-treated agar. Growth inhibition reported as per cent control was rated in three categories as follows: 0% control, growth equivalent to that on non-treated agar; 50% control, sparse development and separated colonies; 100% control, no visible growth or development of colonies.

[1] = Growth promotion in chicks, Example XII repeat (Table VII); format: in vivo, broiler cross chicks; conditions: for growth rate / feed efficiency, production parameters (in words): 25 g/T, second set of tests
Source text: (§4) This example compares growth promotion activity of the product of Example I with other growth promotants at a concentration of 25 g/T in the Basal Ration described in Example VII. The other growth promotants include the product described in Example I of U.S. Pat. No. 3,542,784 -- Burch and quinoxaline-1,4-dioxide. Day old broiler cross chicks were weight equalized into groups of eight chicks each, and four replicates of eight chicks each were fed the experimental rations over a 4 week period.
The growth promotion tests described in Example X were repeated with the additional testing the products of Examples II and III.

Salmonella gallinarum = experiment: Bactericide test, Salmonella gallinarum (agar streak plate); format: cell-based
Source text: as §1, §2, §3
(§5) Test formulations of the product of Example IV were examined for bactericidal and/or bacteriostatic activity against the test organisms shown in Table B using the Bactericide Test described in Example V. The inhibition of organism growth with each diluted test formulation was rated visually by comparison with the organism developing on a non-treated control agar plate. Growth inhibition reported as per cent control was rated in three categories as follows: 0% control, growth equivalent to that on non-treated agar; 50% control is sparse development and separated colonies; and 100% control, development of individual colonies was not apparent.

[2] = test system: Bordetella bronchiseptica; experiment: Bactericide test, Bordetella bronchiseptica (agar streak plate); format: cell-based
Source text: as §1, §2, §3

Salmonella cholerasuis = experiment: Bactericide test, Salmonella cholerasuis (agar streak plate); format: cell-based
Source text: as §1, §2, §3, §5

Salmonella typhimurium = experiment: Bactericide test, Salmonella typhimurium (agar streak plate); format: cell-based
Source text: as §1, §2, §3

Streptococcus faecalis = experiment: Bactericide test, Streptococcus faecalis (agar streak plate); format: cell-based
Source text: as §1, §2, §3, §5

Streptococcus group E = experiment: Bactericide test, Streptococcus group E (agar streak plate); format: cell-based
Source text: as §1, §2, §3

Staphylococcus aureus = experiment: Bactericide test, Staphylococcus aureus (agar streak plate); format: cell-based
Source text: as §1, §2, §3, §5

Vibrio coli = experiment: Bactericide test, Vibrio coli (agar streak plate); format: cell-based
Source text: as §1, §2, §3

[3] = test system: Erysipelothrix rhusiopathiae; experiment: Bactericide test, Erysipelothrix rhusiopathiae (agar streak plate); format: cell-based
Source text: as §1, §2, §3

[4] = Growth promotion in chicks at 25 g/T, Example X (Table IV); format: in vivo, broiler cross chicks
Source text: as §4

[5] = Growth promotion in chicks, Example XII first set (Table VI); format: in vivo, broiler cross chicks; conditions: for Average 4 Week Performance: Feed Efficiency / Average 4 Week Performance: Gain / Improved Response Over Basal Ration: Feed Efficiency / Improved Response Over Basal Ration: Gain: 25 g/T in basal ration, 4 weeks; for growth rate / feed efficiency, production parameters (in words): 25 g/T, first set of tests
Source text: as §4, with “period. […]” for “period.”

[6] = Growth promotion in chicks at low feed levels, Example VIII (Table II); format: in vivo, broiler cross chicks; conditions: 10 g/T in basal ration; 4 weeks
Source text: Day old broiler cross chicks were weight equalized into groups of eight chicks each and were placed in battery brooders. The 32 chick treatment groups (four replicates) were fed one of the five rations described below for a 4 week period. Weekly measurements of body weights and feed consumption were made by replicate, and these measurements used to calculate weight gain and feed efficiency.
The basal ration was the basal ration used in Example VII above. The remaining five rations were obtained by mixing the indicated quantities of bacitracin (4 g/T), chlortetracycline (10 g/T), product of Example I (10 g/T), and product of Example III of U.S. Pat. No. 3,542,784 -- Burch (10 g/T) as growth promotants with the basal ration.

[7] = 100% inhibition at lower concentrations
[8] = 25 g/T in basal ration, 4 weeks

2-[2-(5-nitro-2-furyl)vinyl]-4-(o-hydroxyanilino)quinazoline [Example III]
% Inhibition (Streptococcus agalactiae; 0.125 ppm): 100%
% Inhibition (Streptococcus agalactiae; 0.25 ppm): 100%
% Inhibition (Streptococcus agalactiae; 0.5 ppm): 100%
% Inhibition (Streptococcus agalactiae; 1 ppm): 100%
% Inhibition (Streptococcus agalactiae; 2 ppm): 100%
% Inhibition (Streptococcus agalactiae; 4 ppm): 100%
% Inhibition (Streptococcus agalactiae; 8 ppm): 100%
% Inhibition (Streptococcus agalactiae; 16 ppm): 100%
% Inhibition (Streptococcus agalactiae; 32 ppm): 100%
% Inhibition (Streptococcus agalactiae; 64 ppm): 100%
effectiveness compared with chlortetracycline (in words) (Streptococcus agalactiae; [7]): considerably more effective
Average 4 Week Performance: Feed Efficiency [1, 8]: 1.669
Average 4 Week Performance: Gain [1, 8]: 723.7 g
Improved Response Over Basal Ration: Feed Efficiency [1, 8]: +6.5%
Improved Response Over Basal Ration: Gain [1, 8]: +6.0%
growth rate / feed efficiency, production parameters (in words) [1]: more substantial response
% Inhibition (Salmonella gallinarum; 0.125 ppm): 0%
% Inhibition (Salmonella gallinarum; 0.25 ppm): 0%
% Inhibition (Salmonella gallinarum; 0.5 ppm): 0%
% Inhibition (Salmonella gallinarum; 1 ppm): 0%
% Inhibition (Salmonella gallinarum; 2 ppm): 0%
% Inhibition (Salmonella gallinarum; 4 ppm): 50%
% Inhibition (Salmonella gallinarum; 8 ppm): 50%
% Inhibition (Salmonella gallinarum; 16 ppm): 100%
% Inhibition (Salmonella gallinarum; 32 ppm): 100%
% Inhibition (Salmonella gallinarum; 64 ppm): 100%
% Inhibition ([2]; 0.125 ppm): 100%
% Inhibition ([2]; 0.25 ppm): 100%
% Inhibition ([2]; 0.5 ppm): 100%
% Inhibition ([2]; 1 ppm): 100%
% Inhibition ([2]; 2 ppm): 100%
% Inhibition ([2]; 4 ppm): 100%
% Inhibition ([2]; 8 ppm): 100%
% Inhibition ([2]; 16 ppm): 100%
% Inhibition ([2]; 32 ppm): 100%
% Inhibition ([2]; 64 ppm): 100%
effectiveness compared with chlortetracycline (in words) [2, 7]: considerably more effective
% Inhibition (Salmonella cholerasuis; 0.125 ppm): 0%
% Inhibition (Salmonella cholerasuis; 0.25 ppm): 0%
% Inhibition (Salmonella cholerasuis; 0.5 ppm): 0%
% Inhibition (Salmonella cholerasuis; 1 ppm): 0%
% Inhibition (Salmonella cholerasuis; 2 ppm): 0%
% Inhibition (Salmonella cholerasuis; 16 ppm): 100%
% Inhibition (Salmonella cholerasuis; 32 ppm): 100%
% Inhibition (Salmonella cholerasuis; 64 ppm): 100%
% Inhibition (Salmonella typhimurium; 0.125 ppm): 0%
% Inhibition (Salmonella typhimurium; 0.25 ppm): 0%
% Inhibition (Salmonella typhimurium; 0.5 ppm): 0%
% Inhibition (Salmonella typhimurium; 1 ppm): 0%
% Inhibition (Salmonella typhimurium; 2 ppm): 0%
% Inhibition (Salmonella typhimurium; 4 ppm): 0%
% Inhibition (Salmonella typhimurium; 8 ppm): 0%
% Inhibition (Salmonella typhimurium; 16 ppm): 0%
% Inhibition (Salmonella typhimurium; 32 ppm): 0%
% Inhibition (Salmonella typhimurium; 64 ppm): 0%
% Inhibition (Streptococcus faecalis; 0.125 ppm): 0%
% Inhibition (Streptococcus faecalis; 0.25 ppm): 0%
effectiveness compared with chlortetracycline (in words) (Streptococcus faecalis; [7]): considerably more effective
% Inhibition (Streptococcus group E; 0.125 ppm): 100%
% Inhibition (Streptococcus group E; 0.25 ppm): 100%
% Inhibition (Streptococcus group E; 0.5 ppm): 100%
% Inhibition (Streptococcus group E; 1 ppm): 100%
% Inhibition (Streptococcus group E; 2 ppm): 100%
% Inhibition (Streptococcus group E; 4 ppm): 100%
% Inhibition (Streptococcus group E; 8 ppm): 100%
% Inhibition (Streptococcus group E; 16 ppm): 100%
% Inhibition (Streptococcus group E; 32 ppm): 100%
% Inhibition (Streptococcus group E; 64 ppm): 100%
effectiveness compared with chlortetracycline (in words) (Streptococcus group E; [7]): considerably more effective
% Inhibition (Staphylococcus aureus; 0.125 ppm): 0%
% Inhibition (Staphylococcus aureus; 0.25 ppm): 0%
% Inhibition (Staphylococcus aureus; 0.5 ppm): 0%
% Inhibition (Staphylococcus aureus; 1 ppm): 0%
% Inhibition (Staphylococcus aureus; 2 ppm): 0%
% Inhibition (Staphylococcus aureus; 4 ppm): 0%
% Inhibition (Staphylococcus aureus; 8 ppm): 0%
% Inhibition (Staphylococcus aureus; 16 ppm): 0%
% Inhibition (Staphylococcus aureus; 32 ppm): 0%
% Inhibition (Staphylococcus aureus; 64 ppm): 0%
% Inhibition (Vibrio coli; 0.125 ppm): 100%
% Inhibition (Vibrio coli; 0.25 ppm): 100%
% Inhibition (Vibrio coli; 0.5 ppm): 100%
% Inhibition (Vibrio coli; 1 ppm): 100%
% Inhibition (Vibrio coli; 2 ppm): 100%
% Inhibition (Vibrio coli; 4 ppm): 100%
% Inhibition (Vibrio coli; 8 ppm): 100%
% Inhibition (Vibrio coli; 16 ppm): 100%
% Inhibition (Vibrio coli; 32 ppm): 100%
% Inhibition (Vibrio coli; 64 ppm): 100%
effectiveness compared with chlortetracycline (in words) (Vibrio coli; [7]): considerably more effective
% Inhibition ([3]; 1 ppm): 100%
% Inhibition ([3]; 2 ppm): 100%
% Inhibition ([3]; 4 ppm): 100%
% Inhibition ([3]; 8 ppm): 100%
% Inhibition ([3]; 16 ppm): 100%
% Inhibition ([3]; 32 ppm): 100%
% Inhibition ([3]; 64 ppm): 100%
effectiveness compared with chlortetracycline (in words) [3, 7]: considerably more effective
Average 4 Week Performance: Feed Efficiency [4, 8]: 1.503
Average 4 Week Performance: Gain [4, 8]: 812.7 g
Improved Response Over Basal Ration: Feed Efficiency [4, 8]: +3.2%
Improved Response Over Basal Ration: Gain [4, 8]: +6.2%
Average 4 Week Performance: Feed Efficiency [5]: 1.597
Average 4 Week Performance: Gain [5]: 766.9 g
Improved Response Over Basal Ration: Feed Efficiency [5]: +2.3%
Improved Response Over Basal Ration: Gain [5]: +3.1%
growth rate / feed efficiency, production parameters (in words) [5]: moderate improvements

O=[N+]([O-])c1ccc(-c2nc(Nc3ccc(O)cc3)c3ccccc3n2)o1 [2-(5-nitro-2-furyl)-4-(p-hydroxyanilino)quinazoline, reference compound]
growth rate / feed efficiency, production parameters (in words) [1]: essentially no effect on growth rate or feed efficiency
Average 4 Week Performance: Feed Efficiency [6]: 1.726
Average 4 Week Performance: Gain [6]: 723.1 g
Improved Response Over Basal Ration: Feed Efficiency [6]: +1.9%
Improved Response Over Basal Ration: Gain [6]: +0.4%
effect on feed efficiency (in words) ([4]; 25 g/T): slight, if any, effect on feed efficiency
growth response (in words) ([4]; 25 g/T): appeared to give a growth response
Average 4 Week Performance: Feed Efficiency [5]: 1.675
Average 4 Week Performance: Gain [5]: 736.9 g
Improved Response Over Basal Ration: Feed Efficiency [5]: -2.5%
Improved Response Over Basal Ration: Gain [5]: -1.0%
growth rate / feed efficiency, production parameters (in words) [5]: essentially no effect on growth rate or feed efficiency
